How the values were obtained:
[1] = test system: neonatal rat cardiomyocytes; assay: Fatty acid oxidation (14CO2 release from 14C-palmitate) in rat primary cardiomyocytes treated with DGAT1 inhibitor; details: 1 μM, 2 hr
Experimental: Neonatal Rat Ventricular Myocytes (NRVM's) were extracted from 1-3 day old Sprague Dawley rat pups. […] Both the right and left ventricles were digested in CBHHF media containing 0.2% Trypsin, 100 U Penn-Strep and DNAse II. […] Fibroblasts were separated from the myocytes by preplating for 30 min. […] Myocytes were then collected and cultured in MEM/5% FBS/Pen-Strep/BrDU/L-Gln overnight at 37 C, 5.0% CO2 at a confluency of 75-80% (1.8×10^6 cells per well of a 6 well plate and 0.9×10^6 cells per well of a 12 well plate). The following day myocyte containing plates were assayed for fatty acid oxidation capacity.
Rat primary cardiomyocytes were plated in either 6 well plate or 12 well plate. […] The sample was counted on a beta scintillation counter after resting for at least 2 hours. […]
Primary rat cardiomyocytes were incubated with 1 μM {4-[4-(4-Amino-7,7-dimethyl-7H-pyrimido[4,5-b][1,4]oxazin-6-yl)-phenyl]-cyclohexyl}-acetic acid for 2 hr. The cells were then incubated with ^14C-labeled palmitate and liberated ^14CO2 was determined as described. […]
Primary rat cardiomyocytes were incubated with 1 μM {4-[4-(4-Amino-7,7-dimethyl-7H-pyrimido[4,5-b][1,4]oxazin-6-yl)-phenyl]-cyclohexyl}-acetic acid for 2 hr. The cells were then incubated with ^14C-labeled palmitate, with 0.5 mM glucose, and liberated ^14CO2 was determined as described. […]

Row | SMILES | fatty acid oxidation in cardiomyocytes in presence of glucose ([1]; 0.5 mM glucose, FIG. 3, p<0.05) | decrease in the ability of cells to oxidize [14C]palmitate ([1]; absence of glucose, FIG. 2, p<0.05) [%] | melting point [°C]
1 | CC1(C)Oc2ncnc(N)c2N=C1c1ccc(C2CCC(CC(=O)O)CC2)cc1 (stereo not drawn) | robust decrease in fatty acid oxidation | ~15 | –
2 | Cc1ccc(NC(=O)c2ccc3c(c2)C(=O)N(c2c(C)cccc2C)C3=O)cc1C | – | – | 223 to 225
